{
  "source": "patent US20250041286A1",
  "about": "“CANCER TREATMENT USING KETOTIFEN IN COMBINATION WITH A CHECKPOINT INHIBITOR” (Materia Therapeutics Inc., priority 2021, published 2025)",
  "key": {"[1]": {"tested_on": "K7M2wt tumors", "assay": "Immunofluorescence of T cells (CD3, CD8/Ki67, CD3/CD31) in tumor sections", "type": "in vivo, mouse", "conditions": "Ki67/CD8 staining; concluding statement", "from_the_text": "Immunofluorescence staining for Ki67 and CD8, performed as described above, confirmed the activation status of recruited CD8^+ T cells in osteosarcoma tumors (K7M2wt tumors) (FIGS. 9C-9D). K7M2wt tissue sections were then stained for pimonidazole adducts as a measure of hypoxia formation.\nImmunofluorescence staining of CD3 and CD31 endothelial marker was used to assess the presence of T cells in the proximity of tumor vessel capillaries. PFA-fixed tissue cryosections of K7M2wt osteosarcoma tumors were incubated with primary rabbit anti-CD31 (Abcam, 1:50) and rat anti-CD3 (BioLegend, 1:50) overnight at 4° C. CD31 signal was detected with Alexa Fluor-488 anti-rabbit IgG (H+L) (Invitrogen, 1:400) and CD3 signal with Alexa Fluor-647 anti-rat IgG (H+L) (Invitrogen, 1:400) secondary antibodies. Cell nuclei were stained with DAPI. Tumor associated T cell to vessel content was determined by the overlapping CD31 and CD3 area fraction normalized to DAPI staining."}, "[2]": {"tested_on": "murine MC/9 MCs", "assay": "MC/9 - NIH3T3 transwell co-culture, mast cell degranulation by β-hexosaminidase release", "type": "cell-based", "method": "Given that both MCs and fibroblasts are present in the TME, the consequences of MC activation on myofibroblasts was explored using a co-culture assay in which murine MC/9 MCs and NIH3T3 myofibroblasts were separated by a transwell chamber with micropores that only allowed chemical communication (FIG. 13A). In this system, degranulation efficiency was determined by measuring the concentration of β-hexosaminidase (β-hex) in the supernatant. MC degranulation was induced through exposure to compound 48/80 (C48/80), which binds to the MRGPRB2 receptor (the orthologue of the human G-protein-coupled receptor MRGPRX2). […] Co-cultures treated with a vehicle control and Triton X-100 were used as internal assay control to evaluate background and maximum β-hex release, respectively. Transforming growth factor (TGF)-β1 was used as a fibroblast activator due to its capacity to induce a myofibroblast phenotype of the NIH3T3 cells. MC/9 cells were cultivated with NIH3T3 cells for 24 hours and then treated with either ketotifen or TGFβ for additional 24 hours in low serum medium, followed by a 30 minute sensitization with C48/80."}, "[3]": {"tested_on": "K7M2wt tumors", "assay": "Proliferation of CAFs, α-SMA / Ki-67 immunostaining", "type": "in vivo, mouse", "conditions": "10 mg/kg ketotifen", "method": "(§1) Proliferation of CAFs was evaluated by immunostaining for the presence of alpha-smooth muscle actin (α-SMA) (ab5694, Abcam; diluted 1:50) protein and Ki-67 (Abcam; diluted 1:200) proliferation marker following antigen retrieval, 1 hour incubation in serum solution (10% FBS, 3% donkey serum in 1×PBS), and 1 hour incubation in blocking solution for endogenous mouse IgG (Abcam; diluted 1:100). Following washes with TBS-T (0.25% Tween-20), Alexa Fluor-647 anti-rabbit IgG (H+L) (Invitrogen; diluted 1:400) and Fluor-488 anti-rat IgG (H+L) (Invitrogen; diluted 1:400) secondary antibodies and DAPR (Sigma diluted 1:100 of 1 mg/mL stock) were applied for 1 hour at room temperature. Sections were then mounted on microscope slides using the ProLong gold antifade mountant (Invitrogen) and covered with a glass coverslip. CAF proliferation fraction was detected as the ratio of overlapping α-SMA (green) and Ki67 (red) positive signal to total CAF signal (α-SMA^+), indicating CAFs."}, "[4]": {"tested_on": "MCA205 tumors", "assay": "Proliferation of CAFs, α-SMA / Ki-67 immunostaining", "type": "in vivo, mouse", "conditions": "10 mg/kg ketotifen", "method": "as §1"}, "[5]": {"tested_on": "K7M2wt tumors", "assay": "Tumor growth (volume, mass) under daily ketotifen, osteosarcoma model", "type": "in vivo, mouse", "conditions": "daily ketotifen i.p. for 8 days", "method": "Two mouse models of distinct sarcoma subtypes, fibrosarcoma (MCA205 cells) and osteosarcoma (K7M2wt cells), were used in this study.\nMCA205, a mouse fibrosarcoma cell line (SCC173, Millipore), was cultured in RPMI-1640 expansion medium containing 2 mM L-glutamine, 1 mM sodium pyruvate, 10% fetal bovine serum, 1× non-essential amino acids (TMS-001-C, Sigma), 1% antibiotics (A5955, Sigma), and 1×β-mercaptoethanol. K7M2wt, a mouse osteosarcoma cell line (CRL2836™, ATCC®), was cultured in DMEM expansion medium supplemented with 10% FBS and 1% antibiotics. All cells were maintained at 37° C./5% CO2.\nA fibrosarcoma syngeneic tumor model was generated by subcutaneous implantation of 2.5×10^5 MCA205 cells in 50 μL of serum-free medium into the flank of 6-week old C57BL/6 female mice. A osteosarcoma syngeneic tumor model was generated by implanting K7M2wt tumor chunks into the fat pad of 6-week old BALB/c female mice. […]\nEach treatment group of 4-7 mice received subtherapeutic doses of ketotifen (1, 5, 10 and 25 mg/kg) for a period of 8 days. […] Planar dimensions (x, y) of tumor were monitored every 2-3 days using a digital caliper and tumor volume was estimated from the volume of an ellipsoid and assuming that the third dimension, z, is equal to sqrt(x y)."}, "[6]": {"tested_on": "NIH3T3 cells", "assay": "NIH3T3 cell viability assessment", "type": "cell-based, murine", "conditions": "ketotifen or control for 2 or 24 hours"}, "[7]": {"tested_on": "MCA205 tumors", "assay": "Tumor-opening experiment (residual solid stress)", "type": "in vivo, mouse", "conditions": "5 mg/kg and 10 mg/kg ketotifen", "method": "Tumor-opening experiments were performed as an indicator of the amount of residual stress contained within the tissue, using the values of opening after cutting."}, "[8]": {"tested_on": "CD117 protein", "assay": "Western blot against CD117 protein (mast cell number) in tumors", "type": "in vivo, mouse", "conditions": "subtherapeutic doses of ketotifen"}},
  "data": [
    {"molecule": "CN1CCC(=C2c3ccccc3CC(=O)c3sccc32)CC1", "note": "[ketotifen]", "values": [
      {"measurement": "fraction of CD8+ T cells proliferating", "setting": "[1]", "result": "double"},
      {"measurement": "MC degranulation (β-hex release)", "setting": "[2]; 24 hours treatment, then 30 minute sensitization with C48/80", "result": "inhibits degranulation in a dose-dependent manner"},
      {"measurement": "reduction in β-hex release compared to C48/80 treatment", "setting": "[2]; ketotifen 100 μg/ml", "result": "more than 50%"},
      {"measurement": "CAF levels and proliferation activity (α-SMA, Ki-67)", "setting": "[3]", "result": "decrease"},
      {"measurement": "CAF levels and proliferation activity (α-SMA, Ki-67)", "setting": "[4]", "result": "decrease"},
      {"measurement": "antitumor effect (tumor volume and mass)", "setting": "[5]", "result": "No subtherepautic dose of ketotifen exhibited an antitumor effect"},
      {"measurement": "NIH3T3 cell viability", "setting": "[6]", "result": "did not significantly reduce"},
      {"measurement": "tumor opening after cutting (solid stress)", "setting": "[7]", "result": "smaller opening"},
      {"measurement": "mast cell (MC) number as determined by CD117 protein levels", "setting": "[8]", "result": "remain unaffected"}
    ]}
  ]
}
